Our source for the IC50 values is US12421253B2 (Mirati Therapeutics, Inc., priority 2020, dated 2025).

Where only a bound is given, the exact number is not on record here.

For one test, the target named is T1, KRas^G12D (Homo sapiens, UniProt P01116, G12D).
T1 construct: […]; biotin (biotinylated); purchased Accelegan Inc
Put plainly: KRas binding assay (TR-FRET displacement of Cy5 labelled tracer).

A further test addresses T2, KRas^G12R (Homo sapiens, UniProt P01116, G12R).
T2 construct: […]; biotin (biotinylated); purchased Accelegan Inc
Described as above.

Another test addresses T3, KRas^G12V (Homo sapiens, UniProt P01116, G12V).
T3 construct: […]; biotin (biotinylated); purchased Accelegan Inc
The test is described as above.

Test [1] relates to AsPC-1 (G12D) cells, phospho-ERK. In words: Inhibition of KRas-mediated phosphorylation of ERK (phospho-ERK/GAPDH antibody detection, LI-COR). It counts as cell-based. The settings on record: Homo sapiens, ASPC1, 3 hours. Summed up: (§1)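 Cells seeded 20,000/well, attached 12-14 h, then compound (0.5% DMSO) for 3 h. Formaldehyde-fixed, methanol-permeabilized cells stained for phospho-ERK (Thr202/Tyr204) and GAPDH; infrared imaging. Ratio expressed as % of DMSO control; IC50 from 4-parameter fit.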

Test [2] concerns NCI-H460 (Q61H) cells, phospho-ERK. The description is as above. In kind it is cell-based. The settings on record: Homo sapiens, 3 hours. Summed up: as §1
Test [3] has as its system NCI-H727 (G12V) cells, phospho-ERK. The test is described as above. In kind it is cell-based. Conditions: Homo sapiens, 3 hours. In a few lines:
as §1

Another test relates to A549 cells, pERK. In words: Inhibition of KRas phosphorylation of ERK (Cisbio HTRF Advanced pERK assay). In kind it is cell-based. Conditions: Homo sapiens, 3 hrs, read-out: Inhibition (HTRF IC50 nM) of KRas-mediated Phosphorylation of ERK, A549. In a few lines:
(§2)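 Overnight-plated cells (RPMI, 10% FBS); compound 3 h, 37 °C, 10 uM top, 3-fold x10, 0.8% DMSO; min ctrl trametinib 0.2 uM; lysis 40 min 4 °C; pERK by HTRF, 2 h RT.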

Another test relates to ASPC1 cells, pERK. The description is as above. In kind it is cell-based. Conditions: Homo sapiens, ASPC1, 3 h, AsPC-1 cells, read-out: Inhibition (HTRF IC50 nM) of KRas-mediated Phosphorylation of ERK, AsPC-1. Summed up:
as §2
In general terms: TR-FRET usually uses a lanthanide donor and a delayed reading to cut background.

The next test concerns H460 cells, pERK. Described as above. It counts as cell-based. The settings on record: Homo sapiens, NCI-H460, 3 hrs, read-out: Inhibition (HTRF IC50 nM) of KRas-mediated Phosphorylation of ERK, H460. In a few lines: as §2
The test system of another test is H727 cells, pERK. Described as above. The settings on record: Homo sapiens, NCI-H727, 3 h, read-out: Inhibition (HTRF IC50 nM) of KRas-mediated Phosphorylation of ERK, H727. In kind it is cell-based. Summed up: as §2
The next test has as its system HCT116 cells, pERK. The description is as above. Conditions: Homo sapiens, HCT-116, 3 hrs, read-out: Inhibition (HTRF IC50 nM) of KRas-mediated Phosphorylation of ERK, HCT116. In kind it is cell-based. In a few lines: as §2
Another test has as its system MKN1 cells, pERK. Described as above. In kind it is cell-based. Conditions: Homo sapiens, MKN-1, 3 h, read-out: Inhibition (HTRF IC50 nM) of KRas-mediated Phosphorylation of ERK, MKN1. Summed up:
as §2

The subject of another test is PSN1 cells, pERK. Described as above. Conditions: Homo sapiens, PSN1, 3 h, read-out: Inhibition (HTRF IC50 nM) of KRas-mediated Phosphorylation of ERK, PSN1. In kind it is cell-based. Summed up: as §2
The test system of a further test is H358 cells, pERK. Described as above. In kind it is cell-based. The settings on record: Homo sapiens, NCI-H358, 3 hrs, read-out: Inhibition (HTRF IC50 nM) of KRas-mediated Phosphorylation of ERK, H358. In a few lines: as §2

T2 sequence (P01116 1-169 isoform P01116-2 G12R): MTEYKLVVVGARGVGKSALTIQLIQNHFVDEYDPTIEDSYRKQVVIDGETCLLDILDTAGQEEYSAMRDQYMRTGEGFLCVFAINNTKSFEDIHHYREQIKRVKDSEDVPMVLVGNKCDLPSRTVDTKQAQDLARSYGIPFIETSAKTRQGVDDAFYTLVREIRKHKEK
T1 sequence (P01116 1-169 isoform P01116-2 G12D): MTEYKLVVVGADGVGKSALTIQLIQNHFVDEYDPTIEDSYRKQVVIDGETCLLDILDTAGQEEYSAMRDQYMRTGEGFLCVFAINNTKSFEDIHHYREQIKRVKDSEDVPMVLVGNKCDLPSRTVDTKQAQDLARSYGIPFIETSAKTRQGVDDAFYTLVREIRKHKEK
T3 sequence (P01116 1-169 isoform P01116-2 G12V): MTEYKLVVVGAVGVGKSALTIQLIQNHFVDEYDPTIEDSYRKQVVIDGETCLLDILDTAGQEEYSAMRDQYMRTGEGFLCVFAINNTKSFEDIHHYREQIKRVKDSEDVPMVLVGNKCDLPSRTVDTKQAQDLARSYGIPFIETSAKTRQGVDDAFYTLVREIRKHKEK
Procedure for KRas^G12D: (§3) The ability of a compound to bind to KRas was measured using a TR-FRET displacement assay. […] After a 60-minute incubation at room temperature, the reaction was measured using a BMG LABTECH CLARIO star Plus via TR-FRET. […] The POC values were fit to a 4-parameter IC50 equation and the IC50 value reported.
Procedure for KRas^G12R: as §3
Procedure for KRas^G12V: as §3

Turning to `CCc1c(F)ccc2cc(O)cc(N3CCc4c(nc(OC[C@@]56CCCN5C[C@H](F)C6)nc4N4CC5C(=O)NC(=O)C5C4)C3)c12` (stereo partly drawn) [Example 24, 5-(7-(8-ethyl-7-fluoro-3-hydroxynaphthalen-1-yl)-2-(((2R,7aS)-2-fluorohexahydro-1H-pyrrolizin-7a-yl)methoxy)-5,6,7,8-tetrahydropyrido[3,4-d]pyrimidin-4-yl)tetrahydropyrrolo[3,4-c]pyrrole-1,3(2H,3aH)-dione], the IC50 (in general, the concentration that inhibits the measured activity by half) was at most 2 nM at KRas^G12D; at most 2 nM on KRas^G12R; at most 2 nM at KRas^G12V; 25 nM in [1]; 65 nM in test [2]; 134 nM in test [3]. Besides, the IC50 was 17 nM with A549 cells, pERK; 10 nM in the test with ASPC1 cells, pERK; 59 nM in the test with H460 cells, pERK; 35 nM in the test on H727 cells, pERK; 148 nM in the test with HCT116 cells, pERK; 6 nM in the test on MKN1 cells, pERK. Besides, in the test with PSN1 cells, pERK, the IC50 is 2950 nM.

As to `CCc1c(F)ccc2cc(O)cc(N3CCc4c(nc(OC[C@@]56CCCN5C[C@H](F)C6)nc4N4CCCn5nc(C(=O)NC(C)C)cc5C4)C3)c12` [Example 188, 5-(7-(8-ethyl-7-fluoro-3-hydroxynaphthalen-1-yl)-2-(((2R,7aS)-2-fluorotetrahydro-1H-pyrrolizin-7a(5H)-yl)methoxy)-5,6,7,8-tetrahydropyrido[3,4-d]pyrimidin-4-yl)-N-isopropyl-5,6,7,8-tetrahydro-4H-pyrazolo[1,5-a][1,4]diazepine-2-carboxamide], the IC50 on KRas^G12D is at most 2 nM; on KRas^G12R, at most 2 nM; on KRas^G12V it was at most 2 nM; in the test on ASPC1 cells, pERK, 2 nM; in the test with H358 cells, pERK it was 3 nM; in the test on H460 cells, pERK, 49 nM. The half-maximal inhibitory concentration (IC50) in the test on H727 cells, pERK amounted to 4 nM; in the test with MKN1 cells, pERK, 7 nM; with PSN1 cells, pERK, 2880 nM.

In the case of `CCc1c(F)ccc2cc(O)cc(N3CCc4c(nc(OC[C@@]56CCCN5C[C@H](F)C6)nc4N4CCCn5nc(C(=O)N(C)C)c(C)c5C4)C3)c12` [Example 189, 5-(7-(8-ethyl-7-fluoro-3-hydroxynaphthalen-1-yl)-2-(((2R,7aS)-2-fluorotetrahydro-1H-pyrrolizin-7a(5H)-yl)methoxy)-5,6,7,8-tetrahydropyrido[3,4-d]pyrimidin-4-yl)-N,N,3-trimethyl-5,6,7,8-tetrahydro-4H-pyrazolo[1,5-a][1,4]diazepine-2-carboxamide], the IC50 at KRas^G12D is at most 2 nM; at KRas^G12R, at most 2 nM; on KRas^G12V it was 52 nM; in the test with ASPC1 cells, pERK, 2 nM; in the test with H358 cells, pERK, 1 nM; with H460 cells, pERK, 39 nM. The IC50 in the test with H727 cells, pERK was found to be 3 nM; with MKN1 cells, pERK it was 4 nM; in the test with PSN1 cells, pERK, 2680 nM.

For the compound `CCc1c(F)ccc2cc(O)cc(N3CCc4c(nc(OC[C@@]56CCCN5C[C@H](F)C6)nc4N4CCCn5nc(C(=O)N(C)C)c(F)c5C4)C3)c12` [Example 190, 5-(7-(8-ethyl-7-fluoro-3-hydroxynaphthalen-1-yl)-2-(((2R,7aS)-2-fluorotetrahydro-1H-pyrrolizin-7a(5H)-yl)methoxy)-5,6,7,8-tetrahydropyrido[3,4-d]pyrimidin-4-yl)-3-fluoro-N,N-dimethyl-5,6,7,8-tetrahydro-4H-pyrazolo[1,5-a][1,4]diazepine-2-carboxamide], the IC50 was at most 2 nM on KRas^G12D; at most 2 nM at KRas^G12R; at most 2 nM at KRas^G12V; 2 nM in the test on ASPC1 cells, pERK; 3 nM in the test with H358 cells, pERK; 49 nM with H460 cells, pERK. Moreover, the IC50 stood at 6 nM in the test on H727 cells, pERK; 6 nM in the test with MKN1 cells, pERK; 5450 nM with PSN1 cells, pERK.

With `CCc1c(F)ccc2cc(O)cc(N3CCc4c(nc(OC[C@@]56CCCN5C[C@H](F)C6)nc4N4CCCn5nc(C(=O)N6CCCC6)cc5C4)C3)c12` [Example 191, (5-(7-(8-ethyl-7-fluoro-3-hydroxynaphthalen-1-yl)-2-(((2R,7aS)-2-fluorotetrahydro-1H-pyrrolizin-7a(5H)-yl)methoxy)-5,6,7,8-tetrahydropyrido[3,4-d]pyrimidin-4-yl)-5,6,7,8-tetrahydro-4H-pyrazolo[1,5-a][1,4]diazepin-2-yl)(pyrrolidin-1-yl)methanone], the IC50 on KRas^G12D was at most 2 nM; on KRas^G12R, at most 2 nM; on KRas^G12V, 52 nM; with ASPC1 cells, pERK, 3 nM; in the test with H358 cells, pERK, 3 nM; in the test on H460 cells, pERK it was 33 nM. The IC50 came out at 3 nM in the test on H727 cells, pERK; 10 nM in the test with MKN1 cells, pERK; 2960 nM in the test with PSN1 cells, pERK.

For the compound `CCc1c(F)ccc2cc(O)cc(N3CCc4c(nc(OC[C@@]56CCCN5C[C@H](F)C6)nc4N4CCCc5nn(C(=O)N(C)C)cc5C4)C3)c12` [Example 194, 5-(7-(8-ethyl-7-fluoro-3-hydroxynaphthalen-1-yl)-2-(((2R,7aS)-2-fluorohexahydro-1H-pyrrolizin-7a-yl)methoxy)-5,6,7,8-tetrahydropyrido[3,4-d]pyrimidin-4-yl)-N,N-dimethyl-5,6,7,8-tetrahydropyrazolo[4,3-c]azepine-2(4H)-carboxamide], the IC50 at KRas^G12D was at most 2 nM; on KRas^G12R, at most 2 nM; on KRas^G12V, at most 2 nM; in the test with ASPC1 cells, pERK, 71 nM; with H358 cells, pERK, 63 nM; in the test on H460 cells, pERK, 426 nM. Also, the IC50 is 115 nM in the test on H727 cells, pERK; 100 nM with MKN1 cells, pERK; at least 10000 nM in the test with PSN1 cells, pERK.

For `O=C1NCC2(CCCN(c3nc(OC[C@@]45CCCN4C[C@H](F)C5)nc4c3CCN(c3cc(O)cc5ccc(F)c(Cl)c35)C4)C2)N1` (stereo partly drawn) [Example 228, 7-(7-(8-chloro-7-fluoro-3-hydroxynaphthalen-1-yl)-2-(((2R,7aS)-2-fluorohexahydro-1H-pyrrolizin-7a-yl)methoxy)-5,6,7,8-tetrahydropyrido[3,4-d]pyrimidin-4-yl)-1,3,7-triazaspiro[4.5]decan-2-one], the IC50 at KRas^G12D is at most 2 nM; on KRas^G12R it was at most 2 nM; on KRas^G12V, at most 2 nM; with A549 cells, pERK it was 146 nM; with ASPC1 cells, pERK it was 108 nM; with H460 cells, pERK it was 253 nM. Also, the IC50 in the test with H727 cells, pERK stood at 197 nM; in the test on HCT116 cells, pERK it was 405 nM; in the test with MKN1 cells, pERK, 24 nM; in the test with PSN1 cells, pERK, 696 nM.

`CN(C)C(=O)c1cc2n(n1)CCCN(c1nc(OC[C@@]34CCCN3C[C@H](F)C4)nc3c1CCN(c1cc(O)cc4ccc(F)c(Cl)c14)C3)C2` [Example 229, 5-(7-(8-chloro-7-fluoro-3-hydroxynaphthalen-1-yl)-2-(((2R,7aS)-2-fluorohexahydro-1H-pyrrolizin-7a-yl)methoxy)-5,6,7,8-tetrahydropyrido[3,4-d]pyrimidin-4-yl)-N,N-dimethyl-5,6,7,8-tetrahydro-4H-pyrazolo[1,5-a][1,4]diazepine-2-carboxamide]: the IC50 at KRas^G12D is at most 2 nM; at KRas^G12R, at most 2 nM; on KRas^G12V it was at most 2 nM; in the test on A549 cells, pERK, 705 nM; in the test with ASPC1 cells, pERK it was 220 nM; with H460 cells, pERK, 1400 nM. Further, the IC50 amounted to 260 nM in the test on H727 cells, pERK; 1980 nM in the test on HCT116 cells, pERK; 317 nM in the test on MKN1 cells, pERK; 2140 nM in the test with PSN1 cells, pERK.

For `O=C1NC(=O)C2CN(c3nc(OC[C@@]45CCCN4C[C@H](F)C5)nc4c3CCN(c3cc(O)cc5ccc(F)c(Cl)c35)C4)CC12` (stereo partly drawn) [Example 232, 5-(7-(8-chloro-7-fluoro-3-hydroxynaphthalen-1-yl)-2-(((2R,7aS)-2-fluorohexahydro-1H-pyrrolizin-7a-yl)methoxy)-5,6,7,8-tetrahydropyrido[3,4-d]pyrimidin-4-yl)tetrahydropyrrolo[3,4-c]pyrrole-1,3(2H,3aH)-dione], the IC50 was at most 2 nM at KRas^G12D; at most 2 nM on KRas^G12R; at most 2 nM on KRas^G12V; 98 nM in the test on A549 cells, pERK; 125 nM with ASPC1 cells, pERK; 331 nM in the test on H460 cells, pERK. The half-inhibitory concentration (IC50) in the test on H727 cells, pERK worked out at 114 nM; with HCT116 cells, pERK it was 709 nM; with MKN1 cells, pERK, 34 nM; in the test on PSN1 cells, pERK it was 2770 nM.
